Square brackets hold non-standard residues; d marks the D form. Peptide text beside a SMILES is read from it. dPhe(4-Cl) = N[C@H](Cc1ccc(Cl)cc1)C(=O)O; d2Nal = N[C@H](Cc1ccc2ccccc2c1)C(=O)O; Lys(iPr) = CC(C)NCCCC[C@H](N)C(=O)O; NMeY = CN[C@@H](Cc1ccc(O)cc1)C(=O)O; d3Pal = N[C@H](Cc1cccnc1)C(=O)O
Key:
male cynomolgus monkeys = test: Plasma testosterone in male cynomolgus monkeys given PPI-149 by osmotic pump, then depot leuprolide; format: in vivo; settings: cynomolgus monkey
Description: In a second series of experiments, male cynomolgus monkeys were administered the LHRH antagonist PPI-149 via a subcutaneous continuous osmotic minipump (Alzet pump; Alza, Palo Alto, Calif.) at a dose of 0, 30, 100 or 300 μg/kg/day for a period of 28 days. On day 28, pumps were removed and monkeys were administered a single intramuscular dose of the depot, sustained-release (one-month) formulation of Luprong, equivalent to 0.16 mg/kg. This dose of leuprolide is 1.6 times that used in the treatment of prostate cancer in humans (0.1 mg/kg) and 3.2 times that used in the treatment of endometriosis (0.05 mg/kg).

adult male rats = test: Plasma testosterone in adult male rats given PPI-149 by osmotic pump, then leuprolide; format: in vivo, rat; settings: for prevention of leuprolide-induced testosterone surge / suppression of plasma testosterone levels: rat
Description: In a first series of experiments, adult male rats were first administered an LHRH antagonist having the structure:
(referred to herein as PPI-149). PPI-149 was administered via a subcutaneous continuous osmotic minipump (e.g., the Alzet pump, commercially available from Alza, Palo Alto, Calif.) at a dose of 15 μg/kg/day or 50 μg/kg/day. PPI-149 administration continued for a total of 15-28 days according to several different protocols. A second pump releasing leuprolide (trade name: Lupron®) at 1.8 μg/kg/day was implanted such that there was an overlap of 0, 1 or 7 days with the previously-implanted pump releasing PPI-149.
In the experiment shown in FIG. 1, PPI-149 (at 15 μg/kg/day or 50 μg/kg/day) was administered by osmotic pump for 28 days and then this pump was removed and a second pump administering leuprolide (at 1.8 μg/kg/day) was implanted such that there was no overlap between the antagonist and agonist treatment. Plasma testosterone levels (in ng/ml) were measured during the prolonged administration of PPI-149 alone and following replacement of the PPI-149 pump with the leuprolide pump.
In the experiment shown in FIG. 2, PPI-149 (at 50 μg/kg/day) was administered by osmotic pump for 15 days and then a second pump administering leuprolide (at 1.8 μg/kg/day) was implanted such that there was one day of overlap between the antagonist and agonist treatment (i.e., the first PPI-149-releasing pump was removed one day after implantation of the second leuprolide-releasing pump). Plasma testosterone levels were measured during the prolonged administration of PPI-149 alone and following removal of the PPI-149 pump when leuprolide alone was administered.
(§1) In the experiment shown in FIG. 3, PPI-149 (at 15 μg/kg/day or 50 μg/kg/day) was administered by osmotic pump for 28 days and then a second pump administering leuprolide (at 1.8 μg/kg/day) was implanted such that there was one day of overlap between the antagonist and agonist treatment (i.e., the first PPI-149-releasing pump was removed one day after implantation of the second leuprolide-releasing pump). Plasma testosterone levels were measured during the prolonged administration of PPI-149 alone and following removal of the PPI-149 pump when leuprolide alone was administered.
as §1, with “4,” for “3,”, “were seven days” for “was one day”, “(i e.,” for “(i.e.,”, “seven days” for “one day”

[1] = PPI-149 50 μg/kg/day osmotic pump 15 days, one day overlap with leuprolide 1.8 μg/kg/day (FIG. 2)
[2] = PPI-149 50 μg/kg/day osmotic pump 28 days, one day overlap with leuprolide 1.8 μg/kg/day (FIG. 3)
[3] = PPI-149 50 μg/kg/day osmotic pump 28 days, seven days overlap with leuprolide 1.8 μg/kg/day (FIG. 4)
[4] = PPI-149 50 μg/kg/day s.c. osmotic pump 28 days, no overlap with leuprolide 1.8 μg/kg/day (FIG. 1)

CC(=O)N[C@H](Cc1ccc2ccccc2c1)C(=O)N[C@H](Cc1ccc(Cl)cc1)C(=O)N[C@H](Cc1cccnc1)C(=O)N[C@@H](CO)C(=O)N(C)[C@@H](Cc1ccc(O)cc1)C(=O)N[C@H](CC(N)=O)C(=O)N[C@@H](CC(C)C)C(=O)N[C@@H](CCCCNC(C)C)C(=O)N1CCC[C@H]1C(=O)N[C@H](C)C(N)=O [PPI-149, Ac-D-Nal^1,4-Cl-D-Phe^2, D-Pal^3, N-Me-Tyr^5, D-Asn^6, Lys(iPr)^8, D-Ala^10 -LHRH] (Ac-[d2Nal][dPhe(4-Cl)][d3Pal]S[NMeY][dN]L[Lys(iPr)]P[dA]-NH2)
blockade of testosterone surge from depot Lupron (male cynomolgus monkeys; PPI-149 100 μg/kg/day 28 days, pump removed, single i.m. one-month depot leuprolide equivalent to 0.16 mg/kg on day 28 (FIG. 5)): complete blockade of the testosterone surge | medical castration (plasma testosterone) (male cynomolgus monkeys; PPI-149 100 μg/kg/day s.c. osmotic pump 28 days (FIG. 5)): rapid, complete medical castration within the first two days of treatment | prevention of testosterone surge induced by LHRH agonist (summary of FIGS. 1-4) (adult male rats; adult male rats, PPI-149 50 μg/kg/day, 0, 1 or 7 days): can prevent the testosterone surge induced by LHRH agonist administration | prevention of leuprolide-induced testosterone surge (adult male rats; [1]): prevented the leuprolide-induced testosterone surge | suppression of plasma testosterone levels (adult male rats; [1]): suppressed plasma testosterone levels to castrate levels | prevention of leuprolide-induced testosterone surge (adult male rats; [2]): prevented the leuprolide-induced testosterone surge | suppression of plasma testosterone levels (adult male rats; [2]): suppressed plasma testosterone levels to castrate levels | prevention of leuprolide-induced testosterone surge (adult male rats; [3]): prevented the leuprolide-induced testosterone surge | suppression of plasma testosterone levels (adult male rats; [3]): suppressed plasma testosterone levels to castrate levels | prevention of leuprolide-induced testosterone surge (adult male rats; [4]): prevented the leuprolide-induced testosterone surge | suppression of plasma testosterone levels (adult male rats; [4]): suppressed plasma testosterone levels to castrate levels

From US5843902A, “Methods for treating prostate cancer with LHRH antagonists” (Praecis Pharmaceuticals Incorporated, priority 1996, dated 1998)
